From ChEMBL document CHEMBL4177528, “Recent developments in drug discovery against the protozoal parasites Cryptosporidium and Toxoplasma” (Bioorg Med Chem Lett, 2017)

Tests used:
[1] = test system: Toxoplasma gondii; assay: Antiparasitic activity against Toxoplasma gondii after 4 days by chlorophenol red-beta-D-galactosidase based assay; format: functional, organism-based; details: 96 h
[2] = test system: Toxoplasma gondii; assay: Antiparasitic activity against Toxoplasma gondii assessed as population with apicoplast loss after 4 days by Hoechst staining based microscopy; format: functional
[3] = test system: Toxoplasma gondii; assay: Antiparasitic activity against tachyzoite stage of Toxoplasma gondii infected in LLC-MK2 cells after 6 hrs; format: functional
[4] = test system: Cryptosporidium parvum; assay: Antiparasitic activity against Cryptosporidium parvum infected in human HCT8 cells incubated for 24 hrs post 3 hrs infection by Hoechst 33258 staining based epifluorescence microscopy; format: functional
[5] = test system: Toxoplasma gondii; assay: Antiparasitic activity against tachyzoite stage of Toxoplasma gondii RH infected in Swiss Webster mouse assessed as mouse survival for 60 days post infection; format: functional

| SMILES | IC50 [1] [µM] | Survival [5] | also measured |
| --- | --- | --- | --- |
| Clc1ccc2ccccc2n1 | 5 to 6 | – | – |
| FC(F)(F)c1ccc2c(NCCCN3CCN(c4cccc5nc(Cl)ccc45)CC3)ccnc2c1 | 0.425 | – | Activity [2]: 40 - 45% |
| O=C1C2=C(C(=O)c3ccccc31)[C@H]1Oc3ccc(Br)cc3[C@H]1CO2 | – | – | Activity [3]: <1 µM |
| COc1cccc(C(=O)NC(c2ccc(C)cc2)c2cc(Cl)c3cccnc3c2O)c1 (centres undefined) | – | – | Activity [4]: 0.054 µM |
| O=[N+]([O-])c1cccc2ncccc12 | 5 to 6 | – | – |
| [O-][n+]1cccc2ccccc21 | 5 to 6 | – | – |
| c1ccc2ncccc2c1 [QUINOLINE] | 5 to 6 | – | – |
| O=C(O)c1cn(C2CC2)c2cc(N3CCNCC3)c(F)cc2c1=O [CIPROFLOXACIN] | – | 13 - 25% | – |
| CCOC(=O)c1cn(C2CC2)c2cc(N3CCNCC3)c(F)cc2c1=O [CIPROFLOXACIN ETHYL ESTER] | – | 13 - 25% | – |
| O=C(O)c1cn(C2CC2)c2cc(N3CCN(CC45CC6CC(CC(C6)C4)C5)CC3)c(F)cc2c1=O | – | 13 - 25% | – |
| Cc1cccc(-n2ncc3c(O)nc(-n4nc(C)cc4NC(=O)c4cc5ccccc5o4)nc32)c1 | – | – | Activity [4]: 0.12 µM |
| Oc1cccc2cccnc12 [OXYQUINOLINE] | 0.213 | – | – |
| CCOC(=O)c1cn(C2CC2)c2cc(N3CCN(Cc4ccccc4)CC3)c(F)cc2c1=O | – | 13 - 25% | – |
